Results on five compounds are retold here after ChEMBL document CHEMBL1201862, “PubChem BioAssay data set” (2004).

Test [1] in a line: cytotoxicity in HMLE control line with eGFP shRNA, dose response, counter-screen for HMLE_sh_ECad selective toxicity project, cell-based, HMLE_sh_eGFP, luminescence (AID 463074).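 Further: HMLE human mammary epithelial cells expressing control shRNA against eGFP.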 The format is functional, Homo sapiens. A general note: A counterscreen serves to expose hits that act by an unwanted route or on another target.
Test [2] is described as follows: Luminescence Cell-Based Dose Retest to Confirm Inhibitors of Cancer Stem Cells. [Related pubchem assays (depositor defined):AID2717, AID2721]. The following applies: Homo sapiens. The format is functional.
Test [3] has as its system HEK293. In words: cytotoxicity in HEK293T NF-kB-Luc cells, SAR follow-up, cytotoxicity control for NF-kB activator project, cell-based, resazurin fluorescence (AID 493251). The following applies: Homo sapiens. The format is functional. In general terms: Alamar Blue is a resazurin reagent that responds to reducing activity.
The test system of test [4] is HEK293. In words: SAR Analysis of small molecule inhibitors of B-cell specific antigen receptor-induced NF-kB activation in a HEK-293T cell line using a luminescence assay - Set 2. [Related pubchem assays (depositor defined):AID435022, AID435025, AID489021]. The format is functional, cell-based. The conditions noted are these: Homo sapiens.
Another test has as its system Jurkat. In words: SAR Analysis of small molecule inhibitors of […] specific antigen receptor-induced NF-kB activation in a Jurkat cell line using a luminescence assay - Set 3. [Related pubchem assays (depositor defined):AID435022, AID435025, AID465]. The format is functional, cell-based. The conditions noted are these: Homo sapiens.
Test [5] addresses T1, Heat shock factor protein 1 (Mus musculus, UniProt P38532).
T1 sequence (P38532 whole entry): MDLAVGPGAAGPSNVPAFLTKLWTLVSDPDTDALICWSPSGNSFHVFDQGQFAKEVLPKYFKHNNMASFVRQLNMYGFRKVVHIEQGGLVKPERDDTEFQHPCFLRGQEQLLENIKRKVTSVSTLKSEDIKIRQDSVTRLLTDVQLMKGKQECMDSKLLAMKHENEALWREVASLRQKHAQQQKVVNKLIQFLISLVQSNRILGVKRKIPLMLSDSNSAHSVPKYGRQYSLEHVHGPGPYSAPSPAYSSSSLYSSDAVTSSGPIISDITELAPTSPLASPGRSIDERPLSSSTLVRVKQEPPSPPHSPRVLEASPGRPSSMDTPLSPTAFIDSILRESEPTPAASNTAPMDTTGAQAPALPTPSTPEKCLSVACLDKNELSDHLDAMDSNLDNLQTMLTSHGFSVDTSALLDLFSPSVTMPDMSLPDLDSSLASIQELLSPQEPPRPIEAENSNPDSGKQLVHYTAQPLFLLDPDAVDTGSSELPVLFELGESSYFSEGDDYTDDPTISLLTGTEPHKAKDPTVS
In words: HSF1 potentiators in luciferase reporter cells, confirmation, cell-based, NIH3T3, luminescence, dose retest (AID 435004).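 Further: stress induced by proteasome inhibitor MG132 added 30 min after compound; luciferase reporter driven by HSF1 response element in NIH3T3 cells; actives raise luminescence as potentiators of the MG132 stress response.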 The format is functional. For orientation: In a reporter assay the amount or activity of a reporter protein is the signal.

For test [6], the target named is UDP-galactopyranose mutase (Mycobacterium tuberculosis, UniProt P9WIQ1). Nature of the test: Inhibitors of Mycobacterium tuberculosis UDP-galactopyranose mutase (UGM) enzyme Measured in Biochemical System Using Plate Reader - 2105-02_Inhibitor_Dose_CherryPick_Activity. [Related pubchem assays (depositor defined):AID504439].
Test [7] addresses Beta-lactamase (Salmonella choleraesuis (strain SC-B67), UniProt Q5J463).
The next test addresses Keap1/Nrf2 (Homo sapiens, UniProt Q14145). In words: Keap1-Nrf2 protein-protein interaction inhibitors, dose response, biochemical, fluorescence polarization, cherry-picked samples (AID 588683).
The test system of another test is HeLa. Nature of the test: HeLa cell cytotoxicity, dose response, cytotoxicity control, 24 h, cherry-picked samples (AID 504726).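 Further: potency for cytotoxicity as loss of luminescence signal.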 The format is functional, cell-based. The following applies: Homo sapiens.
Test [8] has as its target T2, Insulin-degrading enzyme (Homo sapiens, UniProt P14735).
T2 sequence (P14735 whole entry): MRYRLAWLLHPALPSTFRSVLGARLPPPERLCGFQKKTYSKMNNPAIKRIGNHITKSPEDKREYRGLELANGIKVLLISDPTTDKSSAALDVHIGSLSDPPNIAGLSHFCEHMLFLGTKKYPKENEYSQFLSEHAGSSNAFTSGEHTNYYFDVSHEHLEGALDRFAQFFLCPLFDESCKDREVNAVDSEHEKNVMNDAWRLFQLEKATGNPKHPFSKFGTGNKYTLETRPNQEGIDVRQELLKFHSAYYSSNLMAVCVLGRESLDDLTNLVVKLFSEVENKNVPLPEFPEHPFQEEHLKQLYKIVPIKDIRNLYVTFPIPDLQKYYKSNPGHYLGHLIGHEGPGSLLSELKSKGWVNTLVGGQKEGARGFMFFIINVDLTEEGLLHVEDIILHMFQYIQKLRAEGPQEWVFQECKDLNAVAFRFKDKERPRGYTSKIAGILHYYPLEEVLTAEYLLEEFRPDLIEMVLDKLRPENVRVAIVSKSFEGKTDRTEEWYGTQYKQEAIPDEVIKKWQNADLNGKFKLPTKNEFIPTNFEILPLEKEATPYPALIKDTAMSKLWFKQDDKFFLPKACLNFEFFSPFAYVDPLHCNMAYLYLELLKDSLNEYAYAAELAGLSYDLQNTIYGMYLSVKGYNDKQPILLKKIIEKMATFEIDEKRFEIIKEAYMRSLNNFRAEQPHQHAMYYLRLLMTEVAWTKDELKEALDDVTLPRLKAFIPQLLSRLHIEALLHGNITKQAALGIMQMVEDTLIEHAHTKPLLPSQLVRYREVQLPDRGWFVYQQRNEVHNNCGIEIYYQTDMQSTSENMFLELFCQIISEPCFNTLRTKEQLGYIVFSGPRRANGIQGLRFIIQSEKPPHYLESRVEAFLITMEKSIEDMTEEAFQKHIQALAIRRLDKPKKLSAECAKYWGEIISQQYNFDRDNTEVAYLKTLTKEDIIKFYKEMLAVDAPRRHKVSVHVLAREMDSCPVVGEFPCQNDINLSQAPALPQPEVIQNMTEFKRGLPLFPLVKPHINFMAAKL
In words: activators of endogenous IDE in HEK cells, dose response, cell-based, fluorescence polarization (AID 588439). The format is functional.

The subject of test [9] is HEK293. Nature of the test: HEK cell cytotoxicity by LDH release, dose response, cytotoxicity control for IDE activator project, fluorescence, HEK cells (AID 588440).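 Further: cytotoxicity by LDH release measuring loss of membrane integrity.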 The format is functional, cell-based. The conditions noted are these: Homo sapiens.
A further test deals with Streptococcus. In words: Group A Streptococcus viability loss, dose response, counter-screen for streptokinase expression inhibitor project, luminescence, BacTiterGlo (AID 1915).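 Further: potency for reduction of bacterial viability or growth.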 The format is functional, organism-based.
For a further test, the target named is T3, Streptokinase A (Streptococcus pyogenes serotype M1, UniProt P10520).
T3 sequence (P10520 whole entry): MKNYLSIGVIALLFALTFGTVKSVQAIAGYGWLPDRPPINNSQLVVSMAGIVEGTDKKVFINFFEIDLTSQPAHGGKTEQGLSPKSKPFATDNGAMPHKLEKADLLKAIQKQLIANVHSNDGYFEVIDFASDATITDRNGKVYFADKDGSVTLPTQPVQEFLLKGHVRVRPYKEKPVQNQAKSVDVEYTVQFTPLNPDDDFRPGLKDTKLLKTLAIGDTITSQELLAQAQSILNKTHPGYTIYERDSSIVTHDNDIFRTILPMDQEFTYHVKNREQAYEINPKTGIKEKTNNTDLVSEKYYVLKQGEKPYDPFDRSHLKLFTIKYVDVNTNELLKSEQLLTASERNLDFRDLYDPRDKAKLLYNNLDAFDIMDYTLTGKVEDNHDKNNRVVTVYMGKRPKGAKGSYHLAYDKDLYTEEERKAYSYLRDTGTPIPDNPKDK
Nature of the test: S. pyogenes streptokinase expression inhibitors, potency, dose response, plasminogen activation absorbance, OD405 (AID 1914).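 Further: secreted streptokinase activity via plasminogen activation per viability signal from cell pellet.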 The format is functional, Streptococcus pyogenes M1 GAS.

Test [10] addresses Beta-lactamase (Pseudomonas aeruginosa, UniProt Q79MP6).
The target of a further test is ORF 73 (Human herpesvirus 8, UniProt O40947). Nature of the test: inhibitors of C-LANA binding to LBS DNA, dose response, biochemical, fluorescence polarization, cherry-picked samples (AID 504725).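 Further: fluorescence polarization of a labeled DNA duplex reporting LANA DNA binding; potency is for inhibitors that block LANA binding to the DNA.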 Details: species or system Human gammaherpesvirus 8.
Test [11] has as its target T2, Insulin-degrading enzyme. In words: activators of recombinant IDE enzyme, dose response, counter-screen for IDE activator project, biochemical, fluorescence polarization (AID 588681).
Test [12] has as its system Streptococcus sp. 'group A'. Nature of the test: growth inhibition of control SK(-) GAS strain, dose response, counter-screen for streptokinase expression inhibitor project, luminescence, kanamycin, BacTiterGlo, confirmation (AID 1900). The format is functional, organism-based.
Test [13] has as its target T4, Beta Lactamase (Pseudomonas aeruginosa, UniProt Q932Y6).
Test [14] concerns HEK293. In words: optical interference in Abeta FP readout, dose response, artefact control for IDE activator project, biochemical, fluorescence polarization (AID 588442). The format is functional, cell-based. The conditions noted are these: Homo sapiens.
A further test has as its system CHO. In words: cytotoxicity in TLR9-MyD88 CHO cells, dose response, cytotoxicity control for TLR9-MyD88 binding inhibitor project, cell-based, luminescence (AID 588339).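 Further: CHO cells stably coexpressing TLR9 and MyD88 fusions from primary screen; compound exposure lasted 48 hours before viability readout.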 The format is functional, hamster. The following applies: Cricetulus griseus.
The target in test [15] is T4, Beta Lactamase. In words: beta-lactamase reporter inhibitor potency, dose response, artefact control for TLR9-MyD88 binding inhibitor project, BLA reporter cells, FRET fluorescence (AID 588341).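 Further: cell based assay in CHO-K1 cells stably expressing beta-lactamase.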 The format is cell-based.
In test [16] the test system is HEK293. Nature of the test: cells. The following applies: Homo sapiens.
For test [17], the system named is HEK293. In words: cells. The conditions noted are these: Homo sapiens. The source holds these as a separate data set.
For test [18], the target named is Dual specificity protein phosphatase 3 (Homo sapiens, UniProt P51452). In words: SAR VHR1 Fluorescent Assay for In Vitro dose response studies Set 3. [Related pubchem assays (depositor defined):AID1654, AID1661, AID1878]. The format is functional.

Calls of active or inactive are those of the source.

T4 sequence (Q932Y6 whole entry): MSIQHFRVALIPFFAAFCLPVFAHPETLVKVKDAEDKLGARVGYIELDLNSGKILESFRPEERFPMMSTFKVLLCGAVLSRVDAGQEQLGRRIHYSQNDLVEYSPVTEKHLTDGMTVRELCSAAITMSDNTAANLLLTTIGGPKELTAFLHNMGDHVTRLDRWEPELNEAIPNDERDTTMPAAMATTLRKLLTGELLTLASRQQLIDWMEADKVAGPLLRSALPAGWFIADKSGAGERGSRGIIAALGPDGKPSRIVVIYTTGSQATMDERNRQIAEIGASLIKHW
Dual specificity protein phosphatase 3, sequence (P51452 whole entry): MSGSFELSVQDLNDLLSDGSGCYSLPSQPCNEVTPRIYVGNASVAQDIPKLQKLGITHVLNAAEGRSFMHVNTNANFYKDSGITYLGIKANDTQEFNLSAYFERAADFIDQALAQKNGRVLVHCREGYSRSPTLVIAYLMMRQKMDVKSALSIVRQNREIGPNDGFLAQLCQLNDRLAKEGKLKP
Keap1/Nrf2, sequence (Q16236 whole entry): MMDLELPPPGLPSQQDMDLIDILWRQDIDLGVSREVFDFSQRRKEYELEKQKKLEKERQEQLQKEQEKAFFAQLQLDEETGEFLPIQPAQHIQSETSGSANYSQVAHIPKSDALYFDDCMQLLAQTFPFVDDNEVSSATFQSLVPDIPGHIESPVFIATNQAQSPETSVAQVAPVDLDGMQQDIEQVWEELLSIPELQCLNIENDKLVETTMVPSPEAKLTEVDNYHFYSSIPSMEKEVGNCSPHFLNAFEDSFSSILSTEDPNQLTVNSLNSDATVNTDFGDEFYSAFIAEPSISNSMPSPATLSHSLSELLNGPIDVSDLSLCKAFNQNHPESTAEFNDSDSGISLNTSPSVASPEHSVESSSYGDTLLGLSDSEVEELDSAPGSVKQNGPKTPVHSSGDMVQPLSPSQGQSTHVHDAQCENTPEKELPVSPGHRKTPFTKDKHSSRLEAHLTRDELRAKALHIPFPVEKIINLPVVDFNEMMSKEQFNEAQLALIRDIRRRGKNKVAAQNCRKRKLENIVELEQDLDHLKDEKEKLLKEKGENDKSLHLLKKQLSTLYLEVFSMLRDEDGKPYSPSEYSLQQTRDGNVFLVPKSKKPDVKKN
Keap1/Nrf2, sequence (Q14145 whole entry): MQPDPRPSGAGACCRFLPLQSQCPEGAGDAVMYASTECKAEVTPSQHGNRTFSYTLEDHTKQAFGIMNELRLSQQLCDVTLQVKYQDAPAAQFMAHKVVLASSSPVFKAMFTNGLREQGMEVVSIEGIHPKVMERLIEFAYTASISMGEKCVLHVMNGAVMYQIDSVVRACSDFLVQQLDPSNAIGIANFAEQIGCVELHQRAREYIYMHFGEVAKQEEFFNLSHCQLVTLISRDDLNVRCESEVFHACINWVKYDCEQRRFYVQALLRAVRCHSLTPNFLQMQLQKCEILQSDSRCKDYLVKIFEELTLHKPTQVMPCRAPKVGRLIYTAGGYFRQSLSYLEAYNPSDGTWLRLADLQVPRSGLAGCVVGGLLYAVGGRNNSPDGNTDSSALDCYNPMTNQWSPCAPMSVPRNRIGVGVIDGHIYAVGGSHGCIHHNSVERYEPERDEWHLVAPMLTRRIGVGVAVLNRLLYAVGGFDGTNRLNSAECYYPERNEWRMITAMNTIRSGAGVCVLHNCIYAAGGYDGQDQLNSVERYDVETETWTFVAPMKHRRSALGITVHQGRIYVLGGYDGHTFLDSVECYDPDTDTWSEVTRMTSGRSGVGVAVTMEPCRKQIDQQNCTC
ORF 73, sequence (O40947 whole entry): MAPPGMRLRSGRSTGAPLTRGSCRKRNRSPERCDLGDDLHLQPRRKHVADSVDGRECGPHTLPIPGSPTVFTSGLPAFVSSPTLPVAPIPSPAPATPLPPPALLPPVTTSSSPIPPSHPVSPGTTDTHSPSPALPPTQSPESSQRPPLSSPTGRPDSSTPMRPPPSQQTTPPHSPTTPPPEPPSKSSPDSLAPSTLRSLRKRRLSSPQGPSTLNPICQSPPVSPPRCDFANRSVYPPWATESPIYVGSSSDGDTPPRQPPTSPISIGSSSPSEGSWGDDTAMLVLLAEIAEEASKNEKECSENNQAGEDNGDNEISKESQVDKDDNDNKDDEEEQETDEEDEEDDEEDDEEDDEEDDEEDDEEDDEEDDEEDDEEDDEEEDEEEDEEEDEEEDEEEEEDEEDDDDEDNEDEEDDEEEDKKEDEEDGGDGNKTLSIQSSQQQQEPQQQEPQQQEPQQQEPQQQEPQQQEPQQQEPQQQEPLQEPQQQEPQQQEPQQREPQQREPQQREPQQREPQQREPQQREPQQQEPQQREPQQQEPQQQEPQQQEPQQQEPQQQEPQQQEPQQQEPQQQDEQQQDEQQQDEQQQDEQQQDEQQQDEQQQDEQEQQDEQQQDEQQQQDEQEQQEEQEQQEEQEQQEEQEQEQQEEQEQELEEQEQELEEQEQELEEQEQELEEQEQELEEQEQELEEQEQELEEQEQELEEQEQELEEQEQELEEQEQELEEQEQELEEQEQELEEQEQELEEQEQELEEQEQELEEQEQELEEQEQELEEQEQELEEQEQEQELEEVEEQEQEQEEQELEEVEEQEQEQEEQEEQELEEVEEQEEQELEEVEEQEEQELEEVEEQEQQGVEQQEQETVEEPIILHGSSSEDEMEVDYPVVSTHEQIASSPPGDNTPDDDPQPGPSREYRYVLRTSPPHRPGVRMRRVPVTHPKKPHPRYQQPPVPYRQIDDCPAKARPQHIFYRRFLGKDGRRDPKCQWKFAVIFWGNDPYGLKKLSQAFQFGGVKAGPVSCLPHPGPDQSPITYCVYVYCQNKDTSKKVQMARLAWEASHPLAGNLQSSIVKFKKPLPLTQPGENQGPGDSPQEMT
Beta-lactamase (Pseudomonas aeruginosa, UniProt Q79MP6), sequence (Q79MP6 whole entry): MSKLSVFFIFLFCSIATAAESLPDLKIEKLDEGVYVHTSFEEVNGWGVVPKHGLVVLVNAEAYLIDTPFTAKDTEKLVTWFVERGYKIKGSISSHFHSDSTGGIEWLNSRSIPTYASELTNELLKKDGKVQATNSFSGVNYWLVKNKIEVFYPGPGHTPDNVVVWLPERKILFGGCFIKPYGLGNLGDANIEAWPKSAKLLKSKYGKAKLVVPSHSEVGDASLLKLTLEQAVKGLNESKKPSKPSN
Beta-lactamase (Salmonella choleraesuis (strain SC-B67), UniProt Q5J463), sequence (Q5J463 whole entry): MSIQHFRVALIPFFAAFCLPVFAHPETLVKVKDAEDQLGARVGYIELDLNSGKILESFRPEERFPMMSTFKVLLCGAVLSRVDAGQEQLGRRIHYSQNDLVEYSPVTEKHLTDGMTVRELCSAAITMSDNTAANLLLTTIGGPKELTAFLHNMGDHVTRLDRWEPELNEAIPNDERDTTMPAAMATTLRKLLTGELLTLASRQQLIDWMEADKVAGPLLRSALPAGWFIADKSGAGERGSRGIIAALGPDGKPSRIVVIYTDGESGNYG
UDP-galactopyranose mutase, sequence (P9WIQ1 whole entry): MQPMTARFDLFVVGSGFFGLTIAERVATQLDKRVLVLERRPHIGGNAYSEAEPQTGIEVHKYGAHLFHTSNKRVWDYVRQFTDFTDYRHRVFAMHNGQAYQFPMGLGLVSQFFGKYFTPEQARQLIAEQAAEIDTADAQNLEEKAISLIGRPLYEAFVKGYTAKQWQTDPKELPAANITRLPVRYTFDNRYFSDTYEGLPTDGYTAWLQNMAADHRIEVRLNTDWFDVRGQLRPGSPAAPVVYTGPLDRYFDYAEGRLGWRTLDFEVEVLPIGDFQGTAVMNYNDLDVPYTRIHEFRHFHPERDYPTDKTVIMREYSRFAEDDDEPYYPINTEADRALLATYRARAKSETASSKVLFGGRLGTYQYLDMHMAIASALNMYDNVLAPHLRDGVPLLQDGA

`O=C(CSc1ccc(F)cc1)N1CCC(c2nc3ccccc3s2)CC1`: the AC50 is 26.9 µM (active) in test [1] and 40.5 µM (active) in test [2].
Regarding `CC(C)(C)c1ccc(-c2noc(CCC(=O)NC3CCCC3)n2)cc1`, the IC50 was > 80 µM (inactive) in the test on HEK293 [3], 0.78 µM (active) with HEK293 [4] and 0.48 µM (active) in the test with Jurkat.
As for `CCCC/N=C1\C(=O)N(C)c2cccc3c(O)c4ccccc4c1c23`, the EC50 in test [5] was 56.5 µM (active); on Insulin-degrading enzyme [8] it was > 54.7 µM (inactive); in the test on Streptococcus, 35.4 µM (active); on Streptokinase A, 21.4 µM (active); on Insulin-degrading enzyme [11], > 54.7 µM (inactive); in test [12], 6.81 µM (active). Also, in the test on HEK293 [14], the EC50 is > 54.7 µM (inactive). In addition, the AC50 is 1.04 µM (active) in test [6], 1.13 µM (active) on Keap1/Nrf2, > 350 µM (inactive) in the test with HeLa and 4.99 µM (active) at ORF 73. Besides, the IC50 at Beta-lactamase [7] is 4.28 µM (active); in the test with HEK293 [9], > 89.2 µM (inactive); on Beta-lactamase [10], 14.3 µM (inactive); on Beta Lactamase [13], 11.9 µM (inactive); in the test with CHO it was 20.1 µM (inactive); at Beta Lactamase [15], 9.06 µM (active).
For the compound `COc1ccc(N2C(=O)NC(NC(=O)C(C)(C)C)(C(F)(F)F)C2=O)cc1` (stereo not given), the EC50 in the test on HEK293 [16] and in the test on HEK293 [17] was > 59.7 µM (inactive) each time.
As for `Cc1ccc(C(=O)NC(=S)Nc2ccc(Cl)c(-c3nc4ccccc4s3)c2)cc1`, the IC50 in [18] was > 66 µM (inactive).

As a reminder, the AC50 is the concentration at which the activity in the assay is half-maximal. One may read the IC50 as the midpoint of a concentration-inhibition curve. As usually defined, the EC50 is the concentration that produces a half-maximal response.
